Data from patent publication US11472766B2, “Lipid nanoparticle composition” (Suzhou Abogen Biosciences Co., Ltd., priority 2020, dated 2022).

Assays:
[1] = Apparent pKa of LNP formulations (TNS fluorescence assay); settings: LNP cationic lipid/DSPC/cholesterol/DMG-PEG 50/10/38.5/1.5 mol %
[2] = tested on: human erythropoietin (hEPO) mRNA; experiment: Animal study: hEPO expression after tail vein injection of LNPs encapsulating hEPO mRNA (serum ELISA); type: in vivo; settings: hEPO level, female ICR mice, 0.5 mg/kg, 6 hours post administration; for Expression at 6 h (μg/ml): class symbols, Table 3; for Expression at 6 h: Table 2
Summary of the method: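 Female ICR mice (6-8 weeks) received LNPs carrying hEPO mRNA by tail vein injection at 0.5 mg/kg, with MC3 LNPs dosed the same way as positive control. Blood was drawn at set times (e.g., 6 h) and serum separated. hEPO was quantified by ELISA and reported as μg/ml.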

[3] = Encapsulation efficiency of lipid nanoparticles (Quant-it Ribogreen RNA quantification assay); type: physicochemical; settings: LNP encapsulating hEPO mRNA
Summary of the method: (§1)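 Ribogreen fluorescence quantifies encapsulated mRNA and backscatter (173°) DLS sizes the particles. These are microfluidically mixed four-component LNPs in DPBS after dialysis.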

[4] = Lipid nanoparticle size by dynamic light scattering (Malvern Zetasizer Nano ZS); type: physicochemical; settings: LNP: cationic lipid/DSPC/cholesterol/PEG-lipid 50:10:38.5:1.5, hEPO mRNA
Summary of the method: as §1

SMILES	Apparant Pka ([1]; Table 3)	Expression at 6 h (μg/ml) [2]	Encapsulation Efficiency ([3]; Table 3) [%]	polydispersity ([4]; Table 3)	size nm ([4]; Table 3) [nm]	Apparant Pka ([1]; Table 2)	Expression at 6 h [2] [µg/mL]	Encapsulation Efficiency ([3]; Table 2) [%]	polydispersity ([4]; Table 2)	size nm ([4]; Table 2) [nm]
CCCCCCCCC(O)CN(CCN(CCCCCC(=O)OCC(CCCCCC)CCCCCCCC)CCCCCC(=O)OCC(CCCCCC)CCCCCCCC)C1CCC1 (stereo not drawn) [Compound 34]	5.29	D (<0.1)	96.1	0.095	63.32					
CCCCCCCCC(CCCCCC)COC(=O)CCCCCN(CCCCCC(=O)OCC(CCCCCC)CCCCCCCC)CCN(CCC)C1CC(O)C1 (stereo not drawn) [Compound 60]	6.329	B (≥1 and <2)	92.1	0.086	68.6					
CCCCCCCCC(CCCCCC)CNC(=O)CCCCCN(CCCCCC(=O)OCC(CCCCCC)CCCCCCCC)CCN(CCO)C1CC1 (stereo not drawn) [Compound 109]	6.633	A (≥2)	97.6	0.06	73.52					
CCCCCCCCC(CCCCCCCC)CNC(=O)CCCCCN(CCCCCC(=O)NCC(CCCCCCCC)CCCCCCCC)CCN(CCO)C1CCCCC1 [Compound 137]	6.751	A (≥2)	95.29	0.029	60.84					
CCCCCCCCC(CCCCCC)C(C)OC(=O)CCCCCN(CCCCCC(=O)OC(C)C(CCCCCC)CCCCCCCC)CCN(CCO)C1CCC1 (stereo not drawn) [Compound 38]	6.172	C (≥0.1 and <1)	98.7	0.167	65.94					
CCCCCCCCC(CCCCCC)COC(=O)CCCCCN(CCCCCC(=O)OCC(CCCCCC)CCCCCCCC)C(=O)CCN(CCO)C1CCC1 (stereo not drawn) [Compound 12]	5.801	D (<0.1)	99.80	0.015	75.86					
CCCCCCCCC(CCCCCCCC)CC(=O)NCCCCCN(CCCCCOC(=O)CC(CCCCCCCC)CCCCCCCC)CCN(CCO)C1CCCC1 [Compound 143]	6.836	A (≥2)	93.2	0.032	58.61					
CCCCCCCCC(CCCCCCCC)COC(=O)CCCCCN(CCCCCC(=O)OCC(CCCCCCCC)CCCCCCCC)CCN(CCO)C1CC(F)(F)C1 [Compound 79]	5.735	C (≥0.1 and <1)	89.2	0.154	52.19					
CCCCCCCC(CCCCCCC)COC(=O)CCCCCN(CCCCCC(=O)OCC(CCCCCCC)CCCCCCC)CCN(CCC)C1CCC(O)CC1 (stereo not drawn) [Compound 71]	6.613	A (≥2)	93.0	0.038	91.13					
CCCCCCCCC(CCCCCC)COC(=O)CCCCCN(CCCCCC(=O)OCC(CCCCCC)CCCCCCCC)CCN(CCCO)C1CCCCC1 (stereo not drawn) [Compound 9]						6.01	0.86	93.3	0.106	77.6
CCCCCCCCC(CCCCCC)COC(=O)CCCCCN(CCCCCC(=O)OCC(CCCCCC)CCCCCCCC)CCN(CCCC)C1CCC(O)CC1 (stereo not drawn) [Compound 58]	6.364	A (≥2)	90.7	0.067	74.68					
CCCCCCCCC(CCCCCCCC)CNC(=O)CCCCCN(CCCCCC(=O)OCC(CCCCCCCC)CCCCCCCC)CCN(CCO)C1CCCCCC1 [Compound 139]	6.518	A (≥2)	92.64	0.052	67.31					
CCCCCCCCC(CCCCCC)CC(=O)NCCCCCN(CCCCCNC(=O)CC(CCCCCC)CCCCCCCC)CCN(CCO)C1CCCCC1 (stereo not drawn) [Compound 115]	6.732	A (≥2)	98.2	0.117	65.12					
CCCCCCCCCCCOC(=O)CCCCCN(CCCCCC(=O)NCC(CCCCCCCC)CCCCCCCC)CCN(CCO)C1CC1 [Compound 151]	6.948	C (≥0.1 and <1)	94.0	0.061	73.86					
CCCCCCCCC(CCCCCC)COC(=O)NCCCCN(CCCCNC(=O)OCC(CCCCCC)CCCCCCCC)CCN(CCO)C1CCCC1 (stereo not drawn) [Compound 125]	6.833	A (≥2)	95.6	0.116	72.36					
CCCCCCCCC(CCCCCC)COC(=O)CCCCCN(CCCCCC(=O)OCC(CCCCCC)CCCCCCCC)CCN(CCO)C1CCCCCCC1 (stereo not drawn) [Compound 6]						5.88	0.00	96.6	0.109	60.5
CCCCCCCCCCC(CCCCCC)COC(=O)CCCN(CCCC(=O)OCC(CCCCCC)CCCCCCCCCC)CCN(CCO)C1CCC1 (stereo not drawn) [Compound 41]	5.93	C (≥0.1 and <1)	97.5	0.054	64.04					
CCCCCCCCC(CCCCCC)COC(=O)CCCCCN(CCCCCC(=O)OCC(CCCCCC)CCCCCCCC)CCN(CCO)C1CCCCCC1 (stereo not drawn) [Compound 3]						6.22	2.63	96.3	0.060	58.7
CCCCCCCCC(CCCCCCCC)CNC(=O)CCCCCN(CCCCCC(=O)OCC(CCCCCCCC)CCCCCCCC)CCN(CCO)C1CCCCC1 [Compound 138]	6.688	A (≥2)	94.50	0.013	63.52					
CCCCCCCCCCCOC(=O)CCCCCN(CCCCCC(=O)OCC(CCCCCCCC)CCCCCCCC)CCN(CCO)C1CCCC1 [Compound 82]	6.406	A (≥2)	94.7	0.025	87.68					
CCCCCCCCC(CCCCCC)CNC(=O)CCCCCN(CCCCCC(=O)NCC(CCCCCC)CCCCCCCC)CCN(CCO)C1CCCC1 (stereo not drawn) [Compound 111]	6.668	B (≥1 and <2)	89.0	0.049	92.3					
CCCCCCC(CCCCCC)CNC(=O)CCCCCN(CCCCCC(=O)OCC(CCCCCC)CCCCCC)CCN(CCO)C1CCCC1 [Compound 140]	6.981	A (≥2)	83.4	0.075	138.7					
CCCCCCCCC(CCCCCC)CC(=O)NCCCCCN(CCCCCOC(=O)CC(CCCCCC)CCCCCCCC)CCN(CCO)C1CC1 (stereo not drawn) [Compound 117]	6.72	A (≥2)	95.2	0.157	76.79					
CCCCCCCCOC(CCCCCN(CCCCCC(=O)NCC(CCCCCC)CCCCCC)CCN(CCO)C1CCC1)OCCCCCCCC [Compound 150]	6.918	A (≥2)	93.5	0.06	66.33					
